Test system: potato 5-Lipoxygenase enzyme
Assay: Lipoxygenase Inhibitor Screening Assay Kit (Cayman), hydroperoxide formation, absorbance 492 nm
Assay type: biochemical
Conditions: positive control at 100 μM
Description: Extracts of cranberry fruit (E1) and cranberry leaf (E2) were prepared with food-grade ethanol, and then filtered and dried as described above. Research grade reagents were used for the rest of the assay preparations. Extracts were dissolved in dimethyl sulfoxide (‘DMSO’) to a final concentration of 50 mg/mL, and then diluted in appropriate buffer for each bioassay to working concentrations.
Cranberry fruit extract (E1) and cranberry leaf extract (E2) were tested for 5-LOX inhibition using the Lipoxygenase Inhibitor Screening Assay Kit (available from Cayman Chemical, Ann Arbor, Michigan, US) and potato 5-Lipoxygenase enzyme (available from Cayman Chemical). This kit measures hydroperoxides produced in the lipoxygenation reaction.
The extracts were dissolved in methanol to final working concentrations. 5-LOX enzyme, Chromagen, and Linoleic Acid solutions were prepared immediately before use. Nordihydroguaiaretic acid (‘NDGA’) was used as a positive control. 5-LOX enzyme was added to the test samples and controls and incubated for five minutes at room temperature to allow for enzyme/inhibitor interaction. Linoleic acid substrate was added to the plate to initiate the reaction, and the plate was then shaken at room temperature for 10 minutes. […] The absorbance was then read at 492 nm. Percent inhibition of the extract concentration was calculated in comparison to the uninhibited control wells. […]

`CC(Cc1ccc(O)c(O)c1)C(C)Cc1ccc(O)c(O)c1` (stereo not shown) [NDGA, Nordihydroguaiaretic acid] showed a 5-LOX enzyme inhibition of 100%.

Source: patent US11918615B2, “Anti-inflammatory botanical extract” (Innophos, LLC, priority 2018, dated 2024)
